Experimental data: patent US11021481B2, “Substituted isoindolin-1-ones and 2,3-dihydro-1h-pyrrolo[3,4-c]pyridin-1-ones as HPK1 antagonists” (Nimbus Saturn, Inc., priority 2019, dated 2021)
Where a name gives a salt, the structure may show the parent alone.

biological target: HPK1 (Homo sapiens (Human), UniProt Q92918); test: HPK1 biochemical enzyme assay (microfluidic mobility shift assay); details: 1.5 nM HPK1, ATP 1 mM final, 30 min preincubation, 60 min at RT, Caliper EZ Reader; read-out: HPK1 1000UMATP caliper IC50
Sequence (Q92918 whole entry): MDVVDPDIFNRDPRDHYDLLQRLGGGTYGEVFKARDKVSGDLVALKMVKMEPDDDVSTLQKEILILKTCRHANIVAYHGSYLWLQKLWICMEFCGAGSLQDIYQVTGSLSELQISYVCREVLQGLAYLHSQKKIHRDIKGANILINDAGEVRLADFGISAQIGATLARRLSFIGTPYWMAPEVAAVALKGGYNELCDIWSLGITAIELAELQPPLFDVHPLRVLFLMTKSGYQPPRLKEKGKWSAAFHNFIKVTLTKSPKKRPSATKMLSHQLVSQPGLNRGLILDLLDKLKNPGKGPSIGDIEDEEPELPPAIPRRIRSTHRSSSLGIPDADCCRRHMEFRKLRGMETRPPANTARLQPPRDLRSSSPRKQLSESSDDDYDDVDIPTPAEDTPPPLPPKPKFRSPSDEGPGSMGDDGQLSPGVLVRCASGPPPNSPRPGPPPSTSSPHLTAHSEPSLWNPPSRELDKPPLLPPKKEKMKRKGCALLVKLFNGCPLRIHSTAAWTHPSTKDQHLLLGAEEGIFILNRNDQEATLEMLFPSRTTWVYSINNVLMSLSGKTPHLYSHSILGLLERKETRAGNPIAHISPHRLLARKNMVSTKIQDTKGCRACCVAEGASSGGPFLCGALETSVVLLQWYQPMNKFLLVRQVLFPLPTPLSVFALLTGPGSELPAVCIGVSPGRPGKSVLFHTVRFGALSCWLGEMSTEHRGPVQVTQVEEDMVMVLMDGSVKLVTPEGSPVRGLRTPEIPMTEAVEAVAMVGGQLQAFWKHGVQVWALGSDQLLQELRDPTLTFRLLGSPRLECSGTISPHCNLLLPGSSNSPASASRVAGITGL
Method: HPK1 biochemical enzyme assay: HPK1 enzyme inhibition was measured using a microfluidic mobility shift assay. […] Test compounds were titrated in ten point curves (top final assay concentration 3 μM), and preincubated with enzyme/substrate mix for 30 min prior to initiation of the reaction by addition of ATP (1 mM final concentration) and substrate (1 μM final concentration; Carna Biosciences) diluted in assay buffer supplemented by MgCl2 (final assay concentration of 5 mM). Following 60 min incubation at RT, the reaction was terminated by addition of 60 µl/well termination buffer (Carna Biosciences) and signal determination using aCaliper EZ Reader (Perkin Elmer, UK).
The compound numbers correspond to the compound numbers in Table 1.

| SMILES | IC50 [nM] |
| --- | --- |
| O=C1NCc2c(-c3cnc4cnccn34)ccc(Nc3ccc(N4CCOC(CO)C4)cn3)c21 (stereo not shown) [I-358, 7-((5-(2-(hydroxymeth-yl)morpholino)-pyridin-2-yl)amino)-4-(imidazo[1,2-a]pyrazin-3-yl)isoindolin-1-one] | < 100 |
| O=C1NCc2c(-c3cnc4cc(F)ccn34)ccc(Nc3ccc(N4CCC(O)(CN5CCOCC5)CC4)cn3)c21 [I-348, 4-(7-fluoroimidazo [1,2-a]pyridin-3-yl)-7-((5-(4-hydroxy-4-(morpholino-methyl)piperidin-1-yl)pyridin-2-yl)amino)isoin-dolin-1-one] | < 100 |
| CN(C)C[C@]1(O)CCCN(c2ccc(Nc3ccc(-c4cnc5cc(F)ccn45)c4c3C(=O)NC4)nc2)C1 [I-567, (R)-7-((5-(3-((dimethylamino)-methyl)-3-hydroxypiperidin-1-yl)pyridin-2-yl)amino)-4-(7-fluoroimidazo [1,2-a]pyridin-3-yl)isoindolin-1-one] | < 100 |
| O=C1NCc2c(-c3cnc4cnccn34)ccc(Nc3ccc(N4CC[C@@H](F)[C@H](O)C4)cn3)c21 [I-434, 7-((5-((3R,4R)-4-fluoro-3-hydroxypiperidin-1-yl)pyridin-2-yl)amino)-4-(imidazo[1,2-a]pyrazin-3-yl)isoindolin-1-one] | < 100 |
| COC[C@H]1CN(c2ccc(Nc3cnc(-c4ccnc5c4ccn5C)c4c3C(=O)NC4)nc2CN(C)C)CCO1 [I-798, (R)-7-((6-((dimethylamino)-methyl)-5-(2-(methoxymeth-yl)morpholino)pyridin-2-yl)amino)-4-(1-methyl-1H-pyrrolo[2,3-b]pyridin-4-yl)-2,3-dihydro-1H-pyrrolo[3,4-c]pyridin-1-one] | < 100 |
| CN1CCC(c2ccc(Nc3ccc(-c4ccnc5c4ccn5C)c4c3C(=O)NC4)nc2)CC1=O (stereo not shown) [I-271, 4-(1-methyl-1H-pyrrolo[2,3-b]pyridin-4-yl)-7-((5-(1-methyl-2-oxopiperidin-4-yl)pyridin-2-yl)amino)isoin-dolin-1-one] | < 100 |
| CN(C)CCc1nc(Nc2cnc(-c3ccnc4c3ccn4C)c3c2C(=O)NC3)ccc1C1CCOC1 (stereo in doubt) [I-807, (R)-7-((6-(2-(dimethylami-no)ethyl)-5-(tetrahydrofuran-3-yl)pyridin-2-yl)amino)-3-(1-methyl-1H-pyrrolo[2,3-b)pyridin-4-yl)-2,3-dihydro-1H-pyrrolo[3,4-c]pyridin-1-one] | < 100 |
| CN(C)C[C@@H]1CN(c2ccc(Nc3ccc(-c4cnc5cc(Cl)ccn45)c4c3C(=O)NC4)nc2)CCO1 [I-593, (R)-4-(7-chloroimidazo [1,2-a]pyridin-3-yl)-7-((5-(2-((dimethylamino)-methyl)mor-pholino)pyridin-2-yl)amino)isoin-dolin-1-one] | < 100 |
| Cn1ccc2c(-c3ccc(Nc4ccc(N5CCC[C@H](N)C5)cn4)c4c3CNC4=O)ccnc21 [I-94, 7-[[5-[(3S)-3-amino-1-piperipyl]-2-pyridyl]amino]-4-(l-methylpyrrolo [2,3-b]pyridin-4-yl)isoindolin-1-one] | < 100 |
| CC(C)(O)[C@H]1CN(c2ccc(Nc3cnc(-c4cnc5c(Cl)cccn45)c4c3C(=O)NC4)nc2)CCO1 [I-462] | < 100 |
| CN(C)Cc1nc(Nc2cnc(-c3ccnc4c3ccn4C)c3c2C(=O)NC3)ccc1C1CCOCC1 [I-845, 7-[[6-[(dimethylamino)-methyl]-5-tetrahydropyran-4-yl-2-pyridyl]amino]-4-[l-methylpyrrolo [2,3-b]pyridin-4-yl)-2,3-dihydropyrrolo [3,4-c]pyridin-1-one Formic acid salt] | < 100 |
| C[C@@H](c1nc(Nc2ccc(-c3cnc4cc(F)ccn34)c3c2C(=O)NC3)ccc1[C@H]1CCOC1)N(C)C (single isomer, unassigned) [I-822] | < 100 |
| O=C1NCc2c(-c3ccnc4[nH]ccc34)ncc(Nc3ccc(N4CCC(O)CC4)cn3)c21 [I-193, 7-[[5-(4-hydroxy-1-piperidyl)-2-pyridyl]-amino]-4-(1H-pyrrolo[2,3-b]pyridin-4-yl)-2,3-dihydropyrrolo [3,4-c]pyridin-1-one] | < 100 |
| Cc1ccn2c(-c3ccc(Nc4ccc(N5CCNCC5)cn4)c4c3CNC4=O)cnc2c1 [I-72, 4-(7-methylimidazo [1,2-a]pyridin-3-yl)-7-[(5-piperazin-1-yl-2-pyridyl)amino] isoindolin-1-one] | < 100 |
| CC(C)(O)[C@@H]1CCCN(c2ccc(Nc3cnc(-c4cnc5ccccn45)c4c3C(=O)NC4)nc2)C1 [I-220, 7-[[5-[(3R)-3-(1-hydroxy-1-methyl-ethyl)-1-piperidyl]-2-pyridyl]-amino]-4-imidazo[1,2-a]pyridin-3-yl-2,3-dihydropyrrolo [3,4-c]pyridin-1-one] | < 100 |
| Cn1ccc2c(-c3ccc(Nc4ccc(N5CCC(O)CC5)cn4)c4c3C(C)(C)NC4=O)ccnc21 [I-282, 7-((5-(4-hydroxypiper-idin-1-yl)pyridin-2-yl)amino)-3.3-dimethyl-4-(1-methyl-1H-pyrrolo[2,3-b]pyridin-4-yl)isoindolin-1-one] | > 1000 |

| SMILES | IC50 [nM] |
| --- | --- |
| CN1CCN(c2ccc(Nc3cnc(-c4cnn5c4CCCC5)c4c3C(=O)NC4)nc2)CC1 [I-255, 7-((5-(4-methylpiperazin-1-yl)pyridin-2-yl)amino)-4-(4,5,6,7-tetrahydropyra-zolo[1,5-a]pyridin-3-yl)-2,3-dihydro-1H-pyrrolo[3,4-c]pyridin-1-one] | < 100 |
| O=C1NCc2c(-c3cncn4ccnc34)ncc(Nc3ccc(N4CCC(O)CC4)cn3)c21 [I-632, 7-((5-(4-hydroxy-piperidin-1-yl)pyridin-2-yl)amino)-4-(imidazo[1,2-c]pyrimidin-8-yl)-2,3-dihydro-1H-pyrrolo[3,4-c]pyridin-1-one] | > 1000 |
| Cn1ccc2c(-c3ncc(Nc4ccnc(N5CC[C@@H]6CNC[C@@H]65)n4)c4c3CNC4=O)ccnc21 [I-685, 7-((2-((3aR,6aR)-hexahydro-pyrrolo[3,4-b]pyrrol-1(2H)-yl)pyrimidin-4-yl)amino)-4-(1-methyl-1H-pyrrolo[2,3-b]pyridin-4-yl)-2,3-dihydro-1H-pyrrolo[3,4-c]pyridin-1-one] | 100 to 1000 |
| CN1CCN(c2ccc(Nc3ccc(-c4ccnc5ccn(C)c45)c4c3C(=O)NC4)nc2)CC1 [I-66, 7-[[5-(4-methylpiperazin-1-yl)-2-pyridyl]amino]-4-(1-methylpyrrolo [3,2-b]pyridin-7-yl)isoindolin-1-one] | 100 to 1000 |
| CN(C)Cc1nc(Nc2ccc(-c3cnc4cc(F)ccn34)c3c2C(=O)NC3)ccc1N1CCOCC1 [I-693, 7-((6-((dimethylamino)-methyl)-5-morpholino-pyridin-2-yl)amino)-4-(7-fluoroimidazo [1,2-a]pyridin-3-yl)isoindolin-1-one] | < 100 |
| CN1CCN(c2ccc(Nc3ccc(-c4cnc5c(C#N)cccn45)c4c3C(=O)NC4)nc2)CC1 [I-74, 3-[7-[[5-(4-methylpiperazin-1-yl)-2-pyridyl]amino]-1-oxo-isoindolin-4-yl]imidazo[1,2-a]pyridine-8-carbonitrile] | < 100 |
| O=C1NCc2c(-c3cnc4cc(F)ccn34)ccc(Nc3ccc(N4CCC[C@]5(CNCCO5)C4)cn3)c21 [I-508, (S)-7-((5-(1-oxa-4.8-diazaspiro[5.5]undecan-8-yl)pyridin-2-yl)amino)-4-(7-fluoroimidazo [1,2-a]pyridin-3-yl)isoindolin-1-one] | < 100 |
| O=C1NCc2c(-c3cnc4cc(F)ccn34)ccc(Nc3ccc(N4C[C@H]5CC[C@@H](C4)C5O)cn3)c21 (stereo partly drawn) [I-404, 4-(7-fluoroimidazo [1,2-a]pyridin-3-yl)-7-((5-((1R,5S)-8-hydroxy-3-azabicyclo [3,2.1]octan-3-yl)pyridin-2-yl)amino)isoin-dolin-1-one] | < 100 |
| CN(C)Cc1nc(Nc2ccc(-c3cnc4cc(F)ccn34)c3c2C(=O)NC3)ccc1N1CC[C@H](F)[C@@H](O)C1 [I-701, 7-((6-((dimethylamino)-methyl)-5-((3S.4S]-4-fluoro-3-hydroxypiperidin-1-yl)pyridin-2-yl)amino)-4-(7-fluoroimidazo [1,2-a]pyridin-3-yl)isoindolin-1-one] | < 100 |
| Cn1ccc2c(-c3ccc(Nc4ccc(N5CCC[C@H](C(C)(C)O)C5)cn4)c4c3CNC4=O)ccnc21 (single isomer, unassigned) [I-280] | < 100 |
| O=C1NCc2c(-c3cnc4cc(F)ccn34)ccc(Nc3ccc(N4CCO[C@@H](CO)C4)cn3)c21 [I-450, 4-(7-fluoroimidazo [1,2-a]pyridin-3-yl)-7-[[5-[(2R)-2-(hydroxymeth-yl)morpholin-4-yl]-2-pyridyl]amino] isoindolin-1-one] | < 100 |
| Cc1nc2ccccn2c1-c1ncc(Nc2ccc(N3CCC(O)CC3)cn2)c2c1CNC2=O [I-248, 7-[[5-(4-hydroxy-1-piperidyl)-2-pyridyl]-amino]-4-(2-methylimidazo [1,2-a]pyridin-3-yl)-2,3-dihydropyrrolo [3,4-c]pyridin-1-one] | > 1000 |
| CCN(CC)Cc1nc(Nc2ccc(-c3cnc4cc(F)ccn34)c3c2C(=O)NC3)ccc1N1CCOCC1 [I-785, 7-((6-((diethylamino)-methyl)-5-morpholinopyr-idin-2-yl)amino)-4-(7-fluoroimidazo [1,2-a]pyridin-3-yl)isoindolin-1-one] | < 100 |
| O=C1NCc2c(-c3cnc4cc(F)ccn34)ccc(Nc3ccc([C@@H]4CCOC4)c(CN4CC[C@@H](F)C4)n3)c21 (stereo in doubt) [I-742] | < 100 |
| CN(C)Cc1nc(Nc2ccc(-c3cnc4cc(F)ccn34)c3c2C(=O)NC3)ccc1N1CCC(C)(O)CC1 [I-535, 7-[[6-[(dimethylamino)-methyl]-5-(4-hydroxy-4-methyl-1-piperidyl)-2-pyridyl]amino]-4-(7-fluoroimidazo [1,2-a]pyridin-3-yl)isoindolin-1-one Formic acid salt] | < 100 |
